The molecules below were run against recombinant full length HPK-1 enzyme (Homo sapiens (Human), UniProt Q92918) (assay: HPK-1 biochemical enzyme assay (ADP-Glo kinase inhibition)). Conditions: recombinant full length HPK-1 6.8 nM, 10 μM ATP, 12.5 μM MBP, 30 mins at 25° C.
Outline: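 ADP-Glo readout of ADP formed after a 30 min, 25° C. reaction of 6.8 nM full-length HPK-1 with swine myelin basic protein (12.5 μM) and ATP (10 μM) in Tris pH 7.4 buffer with MgCl2, DTT and BSA. Ten compound concentrations tested; percent inhibition set against vehicle (0%) and no-enzyme (100%) controls gave IC50.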

Chain of recombinant full length HPK-1 enzyme (Q92918 whole entry, species assumed): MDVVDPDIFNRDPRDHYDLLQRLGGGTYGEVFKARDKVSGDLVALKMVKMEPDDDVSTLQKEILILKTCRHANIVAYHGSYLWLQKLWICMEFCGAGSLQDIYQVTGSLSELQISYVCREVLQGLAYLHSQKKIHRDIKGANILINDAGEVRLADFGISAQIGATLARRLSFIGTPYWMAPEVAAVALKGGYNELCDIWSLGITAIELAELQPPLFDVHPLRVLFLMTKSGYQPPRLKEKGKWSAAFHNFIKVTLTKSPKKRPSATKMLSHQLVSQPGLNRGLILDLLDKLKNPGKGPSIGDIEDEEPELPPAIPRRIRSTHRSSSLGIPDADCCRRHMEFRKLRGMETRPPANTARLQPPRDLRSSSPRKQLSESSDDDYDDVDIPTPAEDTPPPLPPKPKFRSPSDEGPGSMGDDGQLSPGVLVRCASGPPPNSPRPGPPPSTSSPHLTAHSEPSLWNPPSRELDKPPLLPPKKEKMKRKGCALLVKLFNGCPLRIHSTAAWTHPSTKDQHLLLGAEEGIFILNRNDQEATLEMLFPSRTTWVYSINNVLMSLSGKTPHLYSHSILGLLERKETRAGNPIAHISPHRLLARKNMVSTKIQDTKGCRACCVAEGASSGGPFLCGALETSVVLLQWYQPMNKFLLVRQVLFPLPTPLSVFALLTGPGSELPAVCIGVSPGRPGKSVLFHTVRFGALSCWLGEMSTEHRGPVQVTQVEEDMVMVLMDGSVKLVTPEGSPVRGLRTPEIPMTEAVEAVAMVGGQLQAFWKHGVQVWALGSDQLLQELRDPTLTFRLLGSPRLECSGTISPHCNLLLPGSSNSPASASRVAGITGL

IC50 [µM] | SMILES
0.01 to 0.1 | Cc1c(Nc2cc[nH]c(=O)c2C(=O)Nc2ccc(N3CCC(C(=O)O)CC3)cc2)cnc2c1NCCO2 [Example 216, 1-(4-(4-((8-methyl-2,3-dihydro-1H-pyrido[2,3-b][1,4]oxazin-7-yl)amino)-2-oxo-1,2-dihydropyridine-3-carboxamido)phenyl)piperidine-4-carboxylic acid]
0.1 to 1 | Cc1cc(NS(C)(=O)=O)ccc1NC(=O)c1c(Nc2cnc3c(c2C)NCCO3)cc[nH]c1=O [Example 217, 4-((8-methyl-2,3-dihydro-1H-pyrido[2,3-b][1,4]oxazin-7-yl)amino)-N-(2-methyl-4-(methylsulfonamido)phenyl)-2-oxo-1,2-dihydropyridine-3-carboxamide]
0.1 to 1 | CCN1C(=O)C(C)(C)c2cc(NC(=O)c3c(Nc4cnc5c(c4C)NCCO5)cc[nH]c3=O)ccc21 [Example 218, N-(1-ethyl-3,3-dimethyl-2-oxoindolin-5-yl)-4-((8-methyl-2,3-dihydro-1H-pyrido[2,3-b][1,4]oxazin-7-yl)amino)-2-oxo-1,2-dihydropyridine-3-carboxamide]
≤ 0.01 | Cc1c(Nc2cc[nH]c(=O)c2C(=O)Nc2ccc(N3CCN(C)[C@@H](C)C3)cc2)cnc2c1NCCO2 [Example 219, (S)-N-(4-(3,4-dimethylpiperazin-1-yl)phenyl)-4-((8-methyl-2,3-dihydro-1H-pyrido[2,3-b][1,4]oxazin-7-yl)amino)-2-oxo-1,2-dihydropyridine-3-carboxamide]
≤ 0.01 | Cc1c(Nc2cc[nH]c(=O)c2C(=O)Nc2ccc(N3CCN(C)[C@H](C)C3)cc2)cnc2c1NCCO2 [Example 220, (R)-N-(4-(3,4-dimethylpiperazin-1-yl)phenyl)-4-((8-methyl-2,3-dihydro-1H-pyrido[2,3-b][1,4]oxazin-7-yl)amino)-2-oxo-1,2-dihydropyridine-3-carboxamide]
0.1 to 1 | Cc1c(Nc2cc[nH]c(=O)c2C(=O)Nc2ccc3c(c2)NC(=O)CO3)cnc2c1NCCO2 [Example 221, 4-((8-methyl-2,3-dihydro-1H-pyrido[2,3-b][1,4]oxazin-7-yl)amino)-2-oxo-N-(3-oxo-3,4-dihydro-2H-benzo[b][1,4]oxazin-6-yl)-1,2-dihydropyridine-3-carboxamide]
0.1 to 1 | Cc1c(Nc2cc[nH]c(=O)c2C(=O)Nc2cccc(N3CCN(C)CC3)c2)cnc2c1NCCO2 [Example 222, 4-((8-methyl-2,3-dihydro-1H-pyrido[2,3-b][1,4]oxazin-7-yl)amino)-N-(3-(4-methylpiperazin-1-yl)phenyl)-2-oxo-1,2-dihydropyridine-3-carboxamide]
0.01 to 0.1 | Cc1c(Nc2cc[nH]c(=O)c2C(=O)Nc2ccc(S(C)(=O)=O)cc2)cnc2c1NCCO2 [Example 223, 4-((8-methyl-2,3-dihydro-1H-pyrido[2,3-b][1,4]oxazin-7-yl)amino)-N-(4-(methylsulfonyl)phenyl)-2-oxo-1,2-dihydropyridine-3-carboxamide]
0.01 to 0.1 | Cc1nc2cc(NC(=O)c3c(Nc4cnc5c(c4C)NCCO5)cc[nH]c3=O)ccc2[nH]1 [Example 224, N-(2-methyl-1H-benzo[d]imidazol-5-yl)-4-((8-methyl-2,3-dihydro-1H-pyrido[2,3-b][1,4]oxazin-7-yl)amino)-2-oxo-1,2-dihydropyridine-3-carboxamide]
≤ 0.01 | Cc1c(Nc2cc[nH]c(=O)c2C(=O)Nc2ccc(N3CCN(CCCS(C)(=O)=O)CC3)cc2)cnc2c1NCCO2 [Example 225, 4-((8-methyl-2,3-dihydro-1H-pyrido[2,3-b][1,4]oxazin-7-yl)amino)-N-(4-(4-(3-(methylsulfonyl)propyl)piperazin-1-yl)phenyl)-2-oxo-1,2-dihydropyridine-3-carboxamide]
≤ 0.01 | Cc1c(Nc2cc[nH]c(=O)c2C(=O)Nc2ccc(N3CCN(CCN4CCOCC4)CC3)cc2)cnc2c1NCCO2 [Example 226, 4-((8-methyl-2,3-dihydro-1H-pyrido[2,3-b][1,4]oxazin-7-yl)amino)-N-(4-(4-(2-morpholinoethyl)piperazin-1-yl)phenyl)-2-oxo-1,2-dihydropyridine-3-carboxamide]
≤ 0.01 | Cc1c(Nc2cc[nH]c(=O)c2C(=O)Nc2ccc(N3CCN(C)CC3)c(CN(C)C)c2)cnc2c1NCCO2 [Example 227, N-(3-((dimethylamino)methyl)-4-(4-methylpiperazin-1-yl)phenyl)-4-((8-methyl-2,3-dihydro-1H-pyrido[2,3-b][1,4]oxazin-7-yl)amino)-2-oxo-1,2-dihydropyridine-3-carboxamide]
0.01 to 0.1 | Cc1c(Nc2cc[nH]c(=O)c2C(=O)Nc2ccc(C[C@H]3COC(=O)N3)cc2)cnc2c1NCCO2 [Example 228, (S)-4-((8-methyl-2,3-dihydro-1H-pyrido[2,3-b][1,4]oxazin-7-yl)amino)-2-oxo-N-(4-((2-oxooxazolidin-4-yl)methyl)phenyl)-1,2-dihydropyridine-3-carboxamide]
0.1 to 1 | Cc1c(Nc2cc[nH]c(=O)c2C(=O)Nc2cnc(-n3nccn3)c(Cl)c2)cnc2c1NCCO2 [Example 229, N-(5-chloro-6-(2H-1,2,3-triazol-2-yl)pyridin-3-yl)-4-((8-methyl-2,3-dihydro-1H-pyrido[2,3-b][1,4]oxazin-7-yl)amino)-2-oxo-1,2-dihydropyridine-3-carboxamide]
0.01 to 0.1 | Cc1c(Nc2cc[nH]c(=O)c2C(=O)Nc2ccc3c(c2)OCCO3)cnc2c1NCCO2 [Example 230, N-(2,3-dihydrobenzo[b][1,4]dioxin-6-yl)-4-((8-methyl-2,3-dihydro-1H-pyrido[2,3-b][1,4]oxazin-7-yl)amino)-2-oxo-1,2-dihydropyridine-3-carboxamide]
0.01 to 0.1 | Cc1c(Nc2cc[nH]c(=O)c2C(=O)Nc2ccc(S(=O)(=O)NC3CC3)cc2)cnc2c1NCCO2 [Example 231, N-(4-(N-cyclopropylsulfamoyl)phenyl)-4-((8-methyl-2,3-dihydro-1H-pyrido[2,3-b][1,4]oxazin-7-yl)amino)-2-oxo-1,2-dihydropyridine-3-carboxamide]
0.01 to 0.1 | Cc1c(Nc2cc[nH]c(=O)c2C(=O)Nc2ccc(CN3CCS(=O)(=O)CC3)cc2)cnc2c1NCCO2 [Example 232, N-(4-((1,1-dioxidothiomorpholino)methyl)phenyl)-4-((8-methyl-2,3-dihydro-1H-pyrido[2,3-b][1,4]oxazin-7-yl)amino)-2-oxo-1,2-dihydropyridine-3-carboxamide]
0.01 to 0.1 | Cc1c(Nc2cc[nH]c(=O)c2C(=O)Nc2ccc(Cc3ccncc3)cc2)cnc2c1NCCO2 [Example 233, 4-((8-methyl-2,3-dihydro-1H-pyrido[2,3-b][1,4]oxazin-7-yl)amino)-2-oxo-N-(4-(pyridin-4-ylmethyl)phenyl)-1,2-dihydropyridine-3-carboxamide]
0.01 to 0.1 | Cc1c(Nc2cc[nH]c(=O)c2C(=O)Nc2ccc3[nH]ncc3c2)cnc2c1NCCO2 [Example 234, N-(1H-indazol-5-yl)-4-((8-methyl-2,3-dihydro-1H-pyrido[2,3-b][1,4]oxazin-7-yl)amino)-2-oxo-1,2-dihydropyridine-3-carboxamide]
≤ 0.01 | Cc1c(Nc2cc[nH]c(=O)c2C(=O)Nc2ccc(N3CC4CCC3CN4C)cc2)cnc2c1NCCO2 (centres unmarked) [Example 235, 4-((8-methyl-2,3-dihydro-1H-pyrido[2,3-b][1,4]oxazin-7-yl)amino)-N-(4-(5-methyl-2,5-diazabicyclo[2.2.2]octan-2-yl)phenyl)-2-oxo-1,2-dihydropyridine-3-carboxamide]

Reference: patent US20250282794A1 (CURADEV PHARMA LTD, priority 2022, published 2025)
